# Measured values: article PMC2909451 (European journal of pharmaceutical sciences : official …, 2010)
# Where a name gives a salt, the structure may show the parent alone. Read-outs that look alike come from different tables or passages of the source.
# Assays:
# [1] = molecular target: T1, human apical sodium-dependent transporter (SLC10A2, ASBT) (Homo sapiens, UniProt Q12908)
# T1 sequence (Q12908 1-348): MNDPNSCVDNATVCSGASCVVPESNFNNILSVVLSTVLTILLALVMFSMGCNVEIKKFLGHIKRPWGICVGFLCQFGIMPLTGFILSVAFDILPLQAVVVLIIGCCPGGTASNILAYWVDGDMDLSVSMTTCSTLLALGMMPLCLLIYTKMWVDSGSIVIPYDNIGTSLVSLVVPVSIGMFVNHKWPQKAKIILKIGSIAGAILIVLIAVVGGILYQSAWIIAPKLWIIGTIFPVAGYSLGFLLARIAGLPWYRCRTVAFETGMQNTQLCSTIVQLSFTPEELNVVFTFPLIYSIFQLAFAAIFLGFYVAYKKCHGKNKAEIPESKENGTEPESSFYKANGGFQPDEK
# [2] = molecular target: T1, human apical sodium-dependent transporter (SLC10A2, ASBT); assay: ASBT cis-inhibition of taurocholate uptake in ASBT-MDCK cells; conditions: for potency estimated from few doses: read-out: Ki estimated from one concentration; for inhibition at 25 µM / inhibition at 200 µM / inhibition at 1000 µM / inhibition at 5000 µM / inhibition at 10 µM / inhibition at 5 µM: read-out: percent taurocholate inhibited at the highest inhibitor concentration
# [3] = Ki, inhibitor concentration range 0-50 μM, mean±S.E.
# [4] = Ki, inhibitor concentration range 0-100 μM, mean±S.E.
# [5] = Ki, inhibitor concentration range 0-200 μM, mean±S.E.
# [6] = Ki, inhibitor concentration range 0-500 μM, mean±S.E.
# [7] = Ki, inhibitor concentration range 0-1000 μM, mean±S.E.
# [8] = Ki, inhibitor concentrations 0, 25 μM (Table 2), mean±S.E.
# [9] = Reference Ki, from the comprehensive inhibition profile
# [10] = Ki, inhibitor concentration range 0-25 μM, mean±S.E.
# [11] = Ki, inhibitor concentration range 0-5000 μM, mean±S.E.
# [12] = Ki, inhibitor concentration range 0-10 μM, mean±S.E.
# [13] = Ki, inhibitor concentration range 0-5 μM, mean±S.E.
SMILES,inhibition ([1]; 50 µM) [%],inhibition ([1]; 100 µM) [%],inhibition ([1]; 500 µM) [%],"Ki [2, 3] [µM]","Ki [2, 4] [µM]","Ki [2, 5] [µM]","Ki [2, 6] [µM]","Ki [2, 7] [µM]","Ki [2, 9] [µM]",potency estimated from few doses [2] [µM],inhibition at 25 µM [2] [%],inhibition at 200 µM [2] [%],inhibition at 1000 µM [2] [%],"Ki [2, 10] [µM]",inhibition at 10 µM [2] [%],further results
CC(C)(C#N)c1cc(Cn2cncn2)cc(C(C)(C)C#N)c1 [Anastrozole],12,13.2,35.6,231 ± 87,451 ± 163,700 ± 196,686 ± 99,745 ± 74,745,601 ± 69,9.73,18,48.3,–,–,"Ki [2, 8]: 153 ± 79 µM"
"NS(=O)(=O)c1cc2c(cc1C(F)(F)F)NC(Cc1ccccc1)NS2(=O)=O (stereo not shown) [Bendroflumethiazide, bendroflumethiazide]",30.5,37.6,63.6,84.3 ± 20.7,96.4 ± 16.2,121 ± 18,144 ± 20,149 ± 18,149,188 ± 21,8.86,46.6,79.4,166 ± 115,–,–
"CCCCNc1cc(C(=O)O)cc(S(N)(=O)=O)c1Oc1ccccc1 [Bumetanide, bumetanide]",12.2,15.6,48,232 ± 60,343 ± 75,299 ± 33,338 ± 28,341 ± 22,341,354 ± 35,7.1,32.1,65.6,211 ± 108,–,–
"COCc1c(C(C)C)nc(C(C)C)c(/C=C/[C@@H](O)C[C@@H](O)CC(=O)O)c1-c1ccc(F)cc1 [Cerivastatin, cerivastatin]",–,–,–,–,–,–,–,–,–,47.4 ± 22.5,–,–,–,–,–,–
"CCCCOc1cc(C(=O)NCCN(CC)CC)c2ccccc2n1 [Dibucaine hydrochloride, dibucaine hydrochloride]",27.6,43.8,73.7,93.2 ± 12.5,85.8 ± 7.6,96.2 ± 7.7,101 ± 7,101 ± 6,101,116 ± 3,10.5,53.9,86.7,–,–,"Ki [2, 8]: 140 ± 17 µM"
"COc1ccc([C@@H]2Sc3ccccc3N(CCN(C)C)C(=O)[C@@H]2OC(C)=O)cc1 [Diltiazem hydrochloride, diltiazem hydrochloride]",19.5,26.5,52.4,124 ± 16,174 ± 26,221 ± 28,273 ± 30,301 ± 28,301,296 ± 22,16,36.4,66.1,–,–,"Ki [2, 8]: 86.4 ± 11.9 µM"
"CC(C)n1c(/C=C/C(O)CC(O)CC(=O)O)c(-c2ccc(F)cc2)c2ccccc21 (stereo not shown) [Fluvastatin, fluvastatin]",52.6,77,95.5,27.4 ± 2,24.9 ± 1.9,25.1 ± 1.6,24.9 ± 1.6,24.8 ± 1.4,24.8,29.7 ± 2.4,40.2,82.9,96.2,24.5 ± 2.4,–,"Ki [2, 11]: 24.8 ± 1.3 µM; inhibition at 5000 µM [2]: 99.8%"
"COc1ccc2c(c1)c(CC(=O)O)c(C)n2C(=O)c1ccc(Cl)cc1 [Indomethacin, indomethacin]",27.3,46.8,76.4,80.5 ± 13.7,77.9 ± 8.4,84.2 ± 7.3,87.8 ± 6.8,86.4 ± 6,86.4,86.9 ± 12.5,23.2,59.1,89.5,53.9 ± 8.9,11,"Ki [2, 12]: 52.6 ± 13.6 µM"
"COC(=O)C1=C(C)NC(C)=C(C(=O)OC(C)C)C1c1cccc2nonc12 (stereo not shown) [Isradipine, isradipine]",49.7,68.1,–,42.7 ± 7.4,38.8 ± 5.1,36.4 ± 4.2,–,–,36.4,32.7 ± 2.7,25.7,82.5,–,60.4 ± 19.6,12.1,"Ki [2, 13]: 17.5 ± 6.6 µM; Ki [2, 12]: 53.4 ± 35.1 µM; Ki ([2]; Ki, inhibitor concentration range 0-[…], mean±S.E.): 9.55 ± 3.67 µM; inhibition at 5 µM [2]: 14.4%"
"CC(C(=O)O)c1cccc(C(=O)c2ccccc2)c1 (stereo not shown) [Ketoprofen, ketoprofen]",–,–,49.7,–,–,255 ± 14,305 ± 26,328 ± 24,310,336 ± 26,–,34.2,64.7,–,–,"Ki [2, 11]: 310 ± 28 µM; inhibition at 5000 µM [2]: 98%"
Cc1c(OCC(F)(F)F)ccnc1C[S+]([O-])c1nc2ccccc2[nH]1 (stereo not shown) [Lansoprazole],29.5,39.4,73.6,62.1 ± 11.3,86.9 ± 14.7,134 ± 25,132 ± 19,120 ± 16,120,116 ± 2,30.2,44.4,91.9,40.9 ± 7.09,5.99,"Ki ([2]; Ki, inhibitor concentrations 0, 10 μM (Table 4), mean±S.E.): 103 ± 37 µM"
"CC(C)OC(=O)CCC/C=C\C[C@@H]1[C@@H](CC[C@@H](O)CCc2ccccc2)[C@H](O)C[C@@H]1O [Latanoprost, latanoprost]",60.3,79.4,96.2,15.1 ± 2.4,14.3 ± 2,13.6 ± 1.9,13.3 ± 1.9,–,13.3,17.3 ± 2.7,46.9,90,–,14 ± 2.8,34.3,"Ki [2, 13]: 19.3 ± 6.7 µM; Ki [2, 12]: 12.2 ± 2.9 µM; inhibition at 5 µM [2]: 28.1%"
CN1CCCCC1CCN1c2ccccc2Sc2ccc([S+](C)[O-])cc21 (stereo not shown) [Mesoridazine besylate],31.3,52.5,79.8,69.9 ± 19.5,59.6 ± 9.9,63.6 ± 8.2,64.9 ± 7.3,63.5 ± 6.6,63.5,59.5 ± 7.3,–,62.2,94,–,–,–
"N=C(N)c1ccc(OCCCCCOc2ccc(C(=N)N)cc2)cc1 [Pentamidine Isethionate, pentamidine isethionate]",10.7,27.9,62.8,253 ± 126,189 ± 40,147 ± 23,164 ± 20,174 ± 19,174,194 ± 27,10.9,52.7,74.4,–,–,"Ki [2, 8]: 134 ± 82 µM"
O=C(O)C[C@H](O)C[C@H](O)/C=C/c1c(C2CC2)nc2ccccc2c1-c1ccc(F)cc1 [Pitavastatin],36.5,52.4,78.6,59.8 ± 7.5,60.9 ± 5.3,64.9 ± 4.8,67.6 ± 4.8,–,67.6,56.1 ± 4.4,22.7,64.6,–,54.1 ± 10.9,14.4,"Ki [2, 13]: 27.9 ± 7.3 µM; Ki [2, 12]: 29.7 ± 5.9 µM; inhibition at 5 µM [2]: 10.4%"
